{"source": "patent US5019647A", "about": "“Gastrin releasing peptide antagonist” (Merck & Co., Inc., priority 1988, dated 1991)", "key": {"GRP receptor": {"target": "T1, GRP receptor (Mus musculus, UniProt P21729)", "T1 construct": "Swiss 3T3 fibroblasts were used in these tests as the source of GRP receptor; endogenous in cells; host or cells: Swiss 3T3 cells (intact confluent monolayers), obtained from Dr. K. Brown", "T1 sequence (P21729 whole entry)": "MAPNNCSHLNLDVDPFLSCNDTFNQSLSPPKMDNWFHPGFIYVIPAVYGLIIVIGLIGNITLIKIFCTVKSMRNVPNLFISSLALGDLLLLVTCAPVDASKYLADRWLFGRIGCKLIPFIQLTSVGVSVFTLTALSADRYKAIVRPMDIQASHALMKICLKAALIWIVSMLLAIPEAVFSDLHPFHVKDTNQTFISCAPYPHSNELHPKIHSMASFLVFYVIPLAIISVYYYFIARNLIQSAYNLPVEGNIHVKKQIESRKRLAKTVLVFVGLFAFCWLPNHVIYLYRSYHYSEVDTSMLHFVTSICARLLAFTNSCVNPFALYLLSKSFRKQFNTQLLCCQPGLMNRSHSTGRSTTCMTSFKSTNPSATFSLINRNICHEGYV", "test": "Procedure A: Binding Inhibition Studies (competitive binding with [3H-Phe15] GRP15-27)", "conditions": "Swiss 3T3 cells; [3H-Phe15] GRP15-27 at 3 nM; 60 minutes at 15° C.; read-out: blocks binding of the radioligand, IC50", "procedure": "(§1) The activity of the peptide derivatives of the present invention as GRP antagonists was determined in competitive binding assays with a radio-active GRP derivative. Swiss 3T3 fibroblasts were used in these tests as the source of GRP receptor. Because these cells respond to GRP binding with a rapid increase in DNA synthesis, compounds that bind to the GRP receptor can also be tested for their ability to stimulate DNA synthesis. New DNA synthesis is one of the early steps in cell division and is widely accepted as a measure of mitogenicity or cell growth. […] Compounds which block DNA synthesis are mitogenic antagonists.\nSwiss 3T3 cells, obtained from Dr. K. Brown (Institute of Animal Physiology, Cambridge, U.K.), were grown to confluency in Costar 12 well plates containing DMEM (Gibco) supplemented with 10% fetal bovine serum, 2 mM glutamine and 1% penicillin-streptomycin. The cells were washed twice with binding buffer [1:1 DMEM: Waymouths MB752/1 medium, plus 1 mg/ml BSA (Fraction V, Calbiochem)]. The antagonist was dissolved in 10 mM HCl, and diluted to the appropriate concentration in binding buffer. The antagonist was then added to the cells, followed by [3H-Phe^15 ] GRP15-27 at a final concentration of 3 nM. […]"}, "GRP receptor on SCLC": {"target": "T2, GRP receptor on SCLC (Homo sapiens, UniProt P30550)", "T2 construct": "approximately 1×10^8 H345 SCLC cells; endogenous in cells; host or cells: H345 SCLC cells", "T2 sequence (P30550 whole entry)": "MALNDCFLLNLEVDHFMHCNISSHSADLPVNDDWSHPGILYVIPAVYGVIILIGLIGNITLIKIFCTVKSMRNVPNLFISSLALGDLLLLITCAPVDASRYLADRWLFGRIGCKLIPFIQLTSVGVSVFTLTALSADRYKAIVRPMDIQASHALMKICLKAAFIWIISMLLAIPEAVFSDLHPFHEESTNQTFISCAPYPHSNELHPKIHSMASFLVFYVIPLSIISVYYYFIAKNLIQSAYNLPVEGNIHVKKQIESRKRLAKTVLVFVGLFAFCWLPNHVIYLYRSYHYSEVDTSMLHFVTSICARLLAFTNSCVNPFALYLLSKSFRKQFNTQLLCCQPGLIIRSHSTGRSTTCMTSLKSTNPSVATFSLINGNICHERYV", "test": "Procedure D: Stimulation of Ca2+ Release in SCLC (Fura-2 fluorescence, GRP 14-27 challenge)", "type": "cell-based", "conditions": "H345 SCLC cells; 100 nM GRP14-27; read-out: blocks the Ca2+ response elicited by GRP14-27, IC50", "quoted_text": "Following the procedure of Heikkila et al., J Biol. Chem. 262 16456 (1987), approximately 1×10^8 H345 SCLC cells, maintained in RPMI-1640 (Ro) medium supplemented with selenium, insulin, and transferrin, were harvested by settling and washed with Ro. They were then resuspended in 2 ml Ro, to which 1.2 nmol Fura-2/AM per 10^6 cells was added. After a 15 minute incubation at 37° C., the cells were diluted to 10 ml with Ro and incubated for 1 hour at 37° C., the cells were then centrifuged and resuspended in HEPES-saline (140 mM NaCl, 5mM KCl, 5mM glucose, 1 mM CaCl2, 1 mM MgCl2, 20 mM HEPES, pH 7.4) at a density of 2.5-5×10^6 cells/ml. The cells were kept on ice for up to 2 hours before being used. Ca^2+ measurements were performed at 37° C. in an Aminco SPF-500 fluorimeter. The excitation wavelength was 340 nm, the emission wavelength 510 nm. Two ml of cell suspension was periodically resuspended in a 3 ml plastic cuvette. They were equilibrated at 37° for at least 5 minutes data was collected. After a stable baseline was established, the compound of interest was added, and data was collected for approximately 5 minutes. […] The cells were then lysed with 4 μl 10% Triton X-100 to measure peak fluorescence. Baseline fluorescence was measured after the subsequent addition of 40 μl 2M tris (pH 9.5) and 64 μl 0.2M EGTA."}, "Swiss 3T3 cells": {"tested_on": "Swiss 3T3 cells", "test": "Procedure C: Mitogenesis Inhibition (GRP-stimulated 3H-thymidine incorporation)", "type": "cell-based", "conditions": "3 nM human GRP, read-out: blocks mitogenic stimulation of human GRP, IC50", "procedure": "as §1\nSwiss 3T3 cells were grown in monolayer culture in 24 -well plates (Costar) in serum-free DMEM for 48 hours, at which time the GRP or a GRP homologue, the antagonist and 23 nM ^3 H-thymidine were added. After an additional 48 hours, the cell monolayer was washed twice with PBS, and the cells were then removed with 1 ml 10×trypsin containing 5 mM EDTA. The cells were harvested with a Skatron filter apparatus, and the filters counted in a scintillation counter."}}, "note": "Residues, ends and D or L forms follow the SMILES beside them. *: point of attachment. X1 = CCOC[C@H](CC(C)C)N*", "data": [{"smiles": "CCOC[C@H](CC(C)C)NC(=O)[C@H](Cc1c[nH]cn1)NC(=O)CNC(=O)[C@@H](NC(=O)[C@H](C)NC(=O)[C@H](Cc1c[nH]c2ccccc12)NC(=O)[C@H](Cc1c[nH]cn1)NC(C)=O)C(C)C", "note": "[Example 1, Ac-His-Trp-Ala-Val-Gly-His-NHCHCH2 OCH5] (Ac-HWAVGH-X1)", "values": [{"measurement": "IC50", "setting": "GRP receptor", "result": "~5", "unit": "nM"}, {"measurement": "IC50", "setting": "GRP receptor on SCLC", "result": "~300", "unit": "nM"}, {"measurement": "IC50", "setting": "Swiss 3T3 cells", "result": "~20", "unit": "nM"}]}]}
